# Experiments:
# Experiment in all cases: ≥ marks a high value that may be exact or a test limit, other limits are often not marked, values filed in µg/mL are converted to µM
# [1] = system: Escherichia coli NIHJ JC-2
# [2] = system: Pseudomonas aeruginosa U-31
# [3] = system: Staphylococcus aureus FDA 209P
# [4] = system: Bacillus subtilis PCI 219
# [5] = system: Staphylococcus epidermidis
# [6] = system: Staphylococcus aureus A170
# [7] = system: Pseudomonas aeruginosa ATCC 9027
# [8] = system: Escherichia coli ATCC 2592
# [9] = system: Candida albicans ATCC 36232
# [10] = system: Proteus vulgaris ATCC 6380
# Staphylococcus aureus = system: Staphylococcus aureus
# [11] = system: Micrococcus luteus ATCC 9341
# [12] = system: Staphylococcus aureus ATCC 6538
# Escherichia coli W160-37 = system: Escherichia coli W160-37
# [13] = system: Staphylococcus epidermidis T37/8
# [14] = system: Xanthomonas campestris pv. Vesicatoria 2133-2
# [15] = system: Xanthomonas arboricola pv. pruni CFBP 5563
# [16] = system: Acinetobacter baumannii NM8
# [17] = system: Staphylococcus epidermidis T6/19
# [18] = system: Enterococcus faecalis ATCC 29212
# [19] = system: Acinetobacter baumannii NM75
# [20] = system: Stenotrophomonas maltophilia B6/2
# [21] = system: Staphylococcus aureus V4180
# [22] = system: Staphylococcus aureus ATCC 25923
# [23] = system: Candida albicans ATCC 90028
# [24] = system: Stenotrophomonas maltophilia B5/5
# [25] = system: Acinetobacter baumannii NM109
# [26] = system: Erwinia amylovora PMV 6076
# [27] = system: Pseudomonas syringae pv. syringae EPS 94
# [28] = system: Staphylococcus aureus T4/6
# [29] = system: Staphylococcus epidermidis RP62A/1
# [30] = system: Staphylococcus aureus 127/08
# [31] = system: Klebsiella pneumoniae ATCC 700603
# [32] = system: Stenotrophomonas maltophilia B32/4
# [33] = system: Staphylococcus epidermidis RP62A
# [34] = system: Pseudomonas syringae pv. actinidiae Psa3700.1.1
# [35] = system: Staphylococcus aureus 274/08
# [36] = system: Acinetobacter baumannii NM35
# [37] = system: Staphylococcus aureus 145/08
# [38] = system: Acinetobacter baumannii NM124
# [39] = system: Xanthomonas fragariae Xf349-9A
# [40] = system: Stenotrophomonas maltophilia U8908
# [41] = system: Escherichia coli ATCC 25726
# [42] = system: Pseudomonas aeruginosa ATCC 27853
# [43] = system: Staphylococcus aureus S908
# [44] = system: Stenotrophomonas maltophilia B32/1
# [45] = system: Bacillus subtilis IFO 3134
# [46] = system: Escherichia coli IFO 12734
# [47] = system: Pseudomonas aeruginosa IFO 12582
# [48] = system: Staphylococcus aureus IFO 12732
compound,measurement,setting,value
CC(C)C[C@H](NC(=O)[C@H](CCCCN)NC(=O)[C@H](CCCCN)NC(=O)[C@H](CC(C)C)NC(=O)[C@H](CC(C)C)NC(=O)[C@H](CCCCN)NC(=O)[C@H](CCCCN)NC(=O)[C@H](Cc1c[nH]c2ccccc12)NC(=O)[C@H](CC(C)C)NC(=O)[C@H](CCCCN)NC(=O)[C@H](CC(C)C)NC(=O)[C@H](CC(C)C)NC(=O)[C@H](CCCCN)NC(=O)[C@H](CCCCN)NC(=O)[C@H](CC(C)C)NC(=O)[C@H](CC(C)C)NC(=O)[C@@H](N)CCCCN)C(=O)N[C@@H](CCCCN)C(=O)O [KLLKKLLKLWKKLLKKLK],MIC,[1],≥ 44.2 µM
same,MIC,[2],≥ 44.2 µM
same,MIC,[3],≥ 44.2 µM
same,MIC,[4],≥ 44.2 µM
CC[C@H](C)[C@H](NC(=O)[C@@H]1CCCN1C(=O)[C@H](CC(C)C)NC(=O)[C@@H](N)CC(C)C)C(=O)N[C@H](C(=O)N[C@H](C(=O)N[C@@H](CC(N)=O)C(=O)N[C@@H](CC(C)C)C(=O)N[C@@H](CC(C)C)C(=O)N[C@@H](CCCCN)C(=O)N[C@@H](CO)C(=O)N[C@@H](CC(C)C)C(=O)N[C@@H](CC(C)C)C(=O)O)C(C)C)C(C)C [LLPIVVNLLKSLL],MIC,[5],13.9 µM
same,MIC,[6],6.97 µM
CC[C@H](C)[C@H](NC(=O)[C@H](CCCCN)NC(=O)[C@@H]1CCCN1C(=O)[C@H](CC(C)C)NC(=O)[C@H](Cc1ccccc1)NC(=O)[C@H](CC(N)=O)NC(=O)[C@H](C)NC(=O)[C@H](C)NC(=O)[C@H](CC(C)C)NC(=O)CNC(=O)[C@H](C)NC(=O)[C@H](CC(C)C)NC(=O)[C@@H](N)CC(C)C)C(=O)N[C@@H](Cc1ccccc1)C(=O)N[C@@H](CS)C(=O)N[C@@H](CCCCN)C(=O)N[C@H](C(=O)N[C@H](C(=O)N[C@@H](CCCN=C(N)N)C(=O)N[C@@H](CCCCN)C(=O)N[C@@H](CS)C(N)=O)[C@@H](C)O)[C@@H](C)CC [LLAGLAANFLPKIFCKITRKC],MIC,[7],5.39 µM
same,MIC,[8],5.39 µM
same,MIC,[9],2.69 µM
same,MIC,[10],≥ 43.1 µM
same,MIC,Staphylococcus aureus,10.8 µM
same,MIC,[11],2.69 µM
same,MIC,[12],5.39 µM
CC[C@H](C)[C@H](NC(=O)[C@H](Cc1c[nH]c2ccccc12)NC(=O)[C@H](CCCCN)NC(=O)[C@H](CO)NC(=O)[C@H](CC(C)C)NC(=O)[C@H](Cc1ccccc1)NC(=O)[C@@H](NC(=O)[C@H](CCCCN)NC(=O)[C@H](CC(C)C)NC(=O)[C@H](CCCCN)NC(=O)[C@@H]1CCCN1)[C@@H](C)O)C(=O)NCC(=O)O [PKLKTFLSKWIG],MIC,Escherichia coli W160-37,≥ 107 µM
same,MIC,Staphylococcus aureus,107 µM
CC[C@H](C)[C@H](NC(=O)[C@H](C)NC(=O)[C@H](CCCCN)NC(=O)CNC(=O)[C@@H](NC(=O)[C@H](Cc1cnc[nH]1)NC(=O)CNC(=O)[C@H](CC(C)C)NC(=O)[C@H](CC(C)C)NC(=O)[C@@H](NC(=O)CNC(=O)[C@@H](NC(=O)[C@H](CC(C)C)NC(=O)CN)C(C)C)[C@@H](C)O)[C@@H](C)CC)C(=O)N[C@@H](CC(C)C)C(=O)N[C@@H](CO)C(N)=O [GLVGTLLGHIGKAILS],MIC,[13],16 µM
same,MIC,[14],8.8 µM
same,MIC,[15],8.8 µM
same,MIC,[16],≥ 125 µM
same,MIC,[17],8 µM
same,MIC,[18],62.5 µM
same,MIC,[19],≥ 62.5 µM
same,MIC,[20],31.3 µM
same,MIC,[21],16 µM
same,MIC,[22],16 µM
same,MIC,[23],≥ 62.5 µM
same,MIC,[24],≥ 62.5 µM
same,MIC,[25],≥ 125 µM
same,MIC,[26],≥ 35.4 µM
same,MIC,[27],≥ 50 µM
same,MIC,[28],16 µM
same,MIC,[29],8 µM
same,MIC,[30],8 µM
same,MIC,[31],250 µM
same,MIC,[32],≥ 62.5 µM
same,MIC,[33],16 µM
same,MIC,[34],≥ 50 µM
same,MIC,[35],16 µM
same,MIC,[36],≥ 125 µM
same,MIC,[37],16 µM
same,MIC,[38],≥ 125 µM
same,MIC,[39],≥ 35.4 µM
same,MIC,[40],≥ 62.5 µM
same,MIC,[41],≥ 125 µM
same,MIC,[42],250 µM
same,MIC,[43],16 µM
same,MIC,[44],≥ 62.5 µM
CC[C@H](C)[C@H](NC(=O)[C@H](C)NC(=O)[C@@H]1CCCN1C(=O)[C@@H](NC(=O)[C@@H](NC(=O)[C@H](Cc1cnc[nH]1)NC(=O)[C@H](C)NC(=O)[C@H](C)NC(=O)[C@@H](NC(=O)[C@H](CCCCN)NC(=O)[C@H](C)NC(=O)[C@H](CC(C)C)NC(=O)[C@@H](NC(=O)CNC(=O)[C@H](Cc1ccccc1)NC(=O)[C@H](C)N)C(C)C)C(C)C)C(C)C)C(C)C)C(=O)N[C@@H](C)C(=O)N[C@@H](CCC(=O)O)C(=O)N[C@@H](Cc1cnc[nH]1)C(=O)N[C@@H](Cc1ccccc1)C(N)=O [AFGVLAKVAAHVVPAIAEHF],MIC,[45],≥ 64 µM
same,MIC,[46],≥ 64 µM
same,MIC,[47],≥ 64 µM
same,MIC,[48],≥ 64 µM

# — DBAASP
